23 molecules from US12187723B2 (BRISTOL-MYERS SQUIBB COMPANY, priority 2019, dated 2025) can be followed below.

In this test the target is T1, human TLR7 (Homo sapiens, UniProt Q9NYK1).
T1 construct: host or cells: HEK-Blue cells
T1 sequence (Q9NYK1 27-1049): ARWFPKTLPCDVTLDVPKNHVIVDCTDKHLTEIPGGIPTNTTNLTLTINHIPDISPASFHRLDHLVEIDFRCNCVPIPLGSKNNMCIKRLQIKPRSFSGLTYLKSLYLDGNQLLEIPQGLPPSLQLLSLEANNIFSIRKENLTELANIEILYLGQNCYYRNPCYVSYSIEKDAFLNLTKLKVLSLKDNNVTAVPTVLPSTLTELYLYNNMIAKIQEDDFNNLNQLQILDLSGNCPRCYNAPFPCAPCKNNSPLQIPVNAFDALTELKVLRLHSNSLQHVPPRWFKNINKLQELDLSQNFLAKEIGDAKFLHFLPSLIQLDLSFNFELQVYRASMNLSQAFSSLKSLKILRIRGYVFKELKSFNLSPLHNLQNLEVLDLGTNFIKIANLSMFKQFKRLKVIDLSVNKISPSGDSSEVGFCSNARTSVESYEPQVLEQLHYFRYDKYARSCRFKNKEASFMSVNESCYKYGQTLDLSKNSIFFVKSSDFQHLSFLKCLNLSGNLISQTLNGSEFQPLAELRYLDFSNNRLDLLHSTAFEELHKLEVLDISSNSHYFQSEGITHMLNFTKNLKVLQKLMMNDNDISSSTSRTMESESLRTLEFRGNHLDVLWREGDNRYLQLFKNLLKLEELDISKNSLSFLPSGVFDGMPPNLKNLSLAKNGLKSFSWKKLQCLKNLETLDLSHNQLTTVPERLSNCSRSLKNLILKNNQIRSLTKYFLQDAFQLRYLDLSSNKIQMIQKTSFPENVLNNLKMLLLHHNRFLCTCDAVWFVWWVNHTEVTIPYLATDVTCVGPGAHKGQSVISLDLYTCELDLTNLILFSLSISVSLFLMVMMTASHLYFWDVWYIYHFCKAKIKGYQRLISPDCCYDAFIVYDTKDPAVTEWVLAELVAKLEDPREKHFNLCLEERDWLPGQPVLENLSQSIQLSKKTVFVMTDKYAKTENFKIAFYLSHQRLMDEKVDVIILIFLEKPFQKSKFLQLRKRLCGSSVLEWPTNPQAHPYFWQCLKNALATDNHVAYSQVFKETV
The test is described as follows: TLR7 inhibition reporter assay (HEK-Blue SEAP). The following applies: HEK-Blue cells overexpressing human TLR7, gardiquimod 7.5 μM, 22 hour incubation. It counts as cell-based. Put shortly:
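HEK-Blue reporter cells (15,000/well TLR7, 20,000 TLR8) exposed to compound over 0.05 nM–50 μM, agonist-stimulated (R848 for TLR8, gardiquimod for TLR7), 22 h at 37 °C, 5% CO2. SEAP read with HEK-Blue Detection; % inhibition relative to agonist-plus-DMSO and known-inhibitor controls.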
(In a reporter assay the amount or activity of a reporter protein is the signal.)
As to `COc1cc(-c2cc3[nH]c(=O)n([C@@H]4CCCN(CC5CC5)C4)c3cc2C)cn2ncnc12` [Example 55, (R)-1-(1-(cyclopropylmethyl)piperidin-3-yl)-5-(8-methoxy-[1,2,4]triazolo[1,5-a]pyridin-6-yl)-6-methyl-1,3-dihydro-2H-benzo[d]imidazol-2-one], the IC50 was 23.1 nM. This lies in the double-digit nanomolar range.
Then `COc1cc(-c2cc3[nH]c(=O)n([C@@H]4CCCN(CC(C)C)C4)c3cc2C)cn2ncnc12` [Example 56, (R)-1-(1-isobutylpiperidin-3-yl)-5-(8-methoxy-[1,2,4]triazolo[1,5-a]pyridin-6-yl)-6-methyl-1,3-dihydro-2H-benzo[d]imidazol-2-one], with 5.32 nM; and `COc1cc(-c2cc3[nH]c(=O)n([C@H]4CC[C@@H](NC5CCC5)CC4)c3cc2C)cn2ncnc12` [Example 58, 1-((1s,4s)-4-(cyclobutylamino)cyclohexyl)-5-(8-methoxy-[1,2,4]triazolo[1,5-a]pyridin-6-yl)-6-methyl-1,3-dihydro-2H-benzo[d]imidazol-2-one], with 16.2 nM.
With `COc1cc(-c2ccc3c(c2)[nH]c(=O)n3C2CCN(C3CCC3)CC2)cn2ncnc12` [Example 83, 1-(1-cyclobutylpiperidin-4-yl)-5-(8-methoxy-[1,2,4]triazolo[1,5-a]pyridin-6-yl)-1,3-dihydro-2H-benzo[d]imidazol-2-one] the figure was 2480 nM; with `CCN[C@H]1CC[C@@H](n2c(=O)[nH]c3cc(-c4cc(OC)c5ncnn5c4)c(C)cc32)CC1` [Example 63, 1-((1s,4s)-4-(ethylamino)cyclohexyl)-5-(8-methoxy-[1,2,4]triazolo[1,5-a]pyridin-6-yl)-6-methyl-1,3-dihydro-2H-benzo[d]imidazol-2-one], 45.1 nM.
`COc1cc(-c2cc3[nH]c(=O)n([C@@H]4CCCN(C(C)C)C4)c3cc2C)cn2ncnc12` [Example 53, (R)-1-(1-isopropylpiperidin-3-yl)-5-(8-methoxy-[1,2,4]triazolo[1,5-a]pyridin-6-yl)-6-methyl-1,3-dihydro-2H-benzo[d]imidazol-2-one] showed an IC50 of 33 nM. This IC50 and that of the molecule before are within 1.5-fold of each other.
With `Cc1cc2c(cc1-c1cc(C)c3ncnn3c1)[nH]c(=O)n2[C@@H]1CCCN(CC2CC2)C1` [Example 37, (R)-1-(1-(cyclopropylmethyl)piperidin-3-yl)-6-methyl-5-(8-methyl-[1,2,4]triazolo[1,5-a]pyridin-6-yl)-1,3-dihydro-2H-benzo[d]imidazol-2-one] the figure was 30.9 nM; with `COc1cc(-c2cc3[nH]c(=O)n([C@H]4CC[C@@H](N(C)C(C)C)CC4)c3cc2C)cn2ncnc12` [Example 84, 1-((1s,4s)-4-(isopropyl(methyl)amino)cyclohexyl)-5-(8-methoxy-[1,2,4]triazolo[1,5-a]pyridin-6-yl)-6-methyl-1,3-dihydro-2H-benzo[d]imidazol-2-one], 16 nM.
`CNC(=O)CN1CCC(n2c(=O)[nH]c3cc(-c4cc(OC)c5ncnn5c4)c(C)cc32)CC1` [Example 87, 2-(4-(5-(8-methoxy-[1,2,4]triazolo[1,5-a]pyridin-6-yl)-6-methyl-2-oxo-2,3-dihydro-1H-benzo[d]imidazol-1-yl)piperidin-1-yl)-N-methylacetamide] gave an IC50 of 497 nM.
With `COc1cc(-c2ccc3c(c2)[nH]c(=O)n3C2CCN(C3CCOC3)CC2)cn2ncnc12` (centres unmarked) [Example 81, 5-(8-methoxy-[1,2,4]triazolo[1,5-a]pyridin-6-yl)-1-(1-(tetrahydrofuran-3-yl)piperidin-4-yl)-1,3-dihydro-2H-benzo[d]imidazol-2-one] the figure was 2640 nM; with `COc1cc(-c2cc3[nH]c(=O)n([C@H]4CC[C@@H](N(C)C5CCOCC5)CC4)c3cc2C)cn2ncnc12` [Example 85, 5-(8-methoxy-[1,2,4]triazolo[1,5-a]pyridin-6-yl)-6-methyl-1-((1s,4s)-4-(methyl(tetrahydro-2H-pyran-4-yl)amino)cyclohexyl)-1,3-dihydro-2H-benzo[d]imidazol-2-one], 21.4 nM.
The molecule `Cc1cc2c(cc1-c1cc(C)c3ncnn3c1)[nH]c(=O)n2[C@@H]1CCCN(CCC(C)(C)C)C1` [Example 44, (R)-1-(1-(3,3-dimethylbutyl)piperidin-3-yl)-6-methyl-5-(8-methyl-[1,2,4]triazolo[1,5-a]pyridin-6-yl)-1,3-dihydro-2H-benzo[d]imidazol-2-one] showed an IC50 of 104 nM.
With `COc1cc(-c2cc3[nH]c(=O)n([C@@H]4CCCN(C5CCC5)C4)c3cc2C)cn2ncnc12` [Example 69, (R)-1-(1-cyclobutylpiperidin-3-yl)-5-(8-methoxy-[1,2,4]triazolo[1,5-a]pyridin-6-yl)-6-methyl-1,3-dihydro-2H-benzo[d]imidazol-2-one] the figure was 96.9 nM.
Then `Cc1cc(-c2ccc3c(c2)[nH]c(=O)n3C2CCN(CC(=O)N(C)C)CC2)cn2ncnc12` [Example 90, N,N-dimethyl-2-(4-(5-(8-methyl-[1,2,4]triazolo[1,5-a]pyridin-6-yl)-2-oxo-2,3-dihydro-1H-benzo[d]imidazol-1-yl)piperidin-1-yl)acetamide], with 2160 nM.
Then `COc1cc(-c2cc3[nH]c(=O)n([C@H]4CC[C@@H](NC(C)C)CC4)c3cc2C)cn2ncnc12` [Example 50, 1-((1s,4s)-4-(isopropylamino)cyclohexyl)-5-(8-methoxy-[1,2,4]triazolo[1,5-a]pyridin-6-yl)-6-methyl-1,3-dihydro-2H-benzo[d]imidazol-2-one], with 38.5 nM.
For the molecule `CCC(CC)CN1CCC[C@@H](n2c(=O)[nH]c3cc(-c4cc(C)c5ncnn5c4)c(C)cc32)C1` [Example 45, (R)-1-(1-(2-ethylbutyl)piperidin-3-yl)-6-methyl-5-(8-methyl-[1,2,4]triazolo[1,5-a]pyridin-6-yl)-1,3-dihydro-2H-benzo[d]imidazol-2-one], the IC50 is 29.5 nM.
On to `COc1cc(-c2cc3[nH]c(=O)n([C@H]4CC[C@@H](NC5CCOCC5)CC4)c3cc2C)cn2ncnc12` [Example 49, 5-(8-methoxy-[1,2,4]triazolo[1,5-a]pyridin-6-yl)-6-methyl-1-((1s,4s)-4-((tetrahydro-2H-pyran-4-yl)amino)cyclohexyl)-1,3-dihydro-2H-benzo[d]imidazol-2-one], for which the IC50 came out at 18.2 nM. Compared with the last molecule, the IC50 is about 1.6-fold lower.
Then `Cc1cc2c(cc1-c1cc(C)c3ncnn3c1)[nH]c(=O)n2[C@@H]1CCCN(CCCC(F)(F)F)C1` [Example 39, (R)-6-methyl-5-(8-methyl-[1,2,4]triazolo[1,5-a]pyridin-6-yl)-1-(1-(4,4,4-trifluorobutyl)piperidin-3-yl)-1,3-dihydro-2H-benzo[d]imidazol-2-one], with 139 nM.
Then `COc1cc(-c2cc3[nH]c(=O)n([C@@H]4CCCN(C)C4)c3cc2C)cn2ncnc12` [Example 51, (R)-5-(8-methoxy-[1,2,4]triazolo[1,5-a]pyridin-6-yl)-6-methyl-1-(1-methylpiperidin-3-yl)-1,3-dihydro-2H-benzo[d]imidazol-2-one], with 32.5 nM; and `COc1cc(-c2cc3[nH]c(=O)n(C4CCN(CC(=O)N(C)C)CC4)c3cc2C)cn2ncnc12` [Example 86, 2-(4-(5-(8-methoxy-[1,2,4]triazolo[1,5-a]pyridin-6-yl)-6-methyl-2-oxo-2,3-dihydro-1H-benzo[d]imidazol-1-yl)piperidin-1-yl)-N,N-dimethylacetamide], with 142 nM; and `COc1cc(-c2cc3[nH]c(=O)n([C@H]4CC[C@@H](NC5CCCCC5)CC4)c3cc2C)cn2ncnc12` [Example 62, 1-((1s,4s)-4-(cyclohexylamino)cyclohexyl)-5-(8-methoxy-[1,2,4]triazolo[1,5-a]pyridin-6-yl)-6-methyl-1,3-dihydro-2H-benzo[d]imidazol-2-one], with 12 nM.
Then `Cc1cc2c(cc1-c1cc(C)c3ncnn3c1)[nH]c(=O)n2[C@@H]1CCCN(CC2CCOC2)C1` (stereo partly drawn) [Example 43, 6-methyl-5-(8-methyl-[1,2,4]triazolo[1,5-a]pyridin-6-yl)-1-((3R)-1-((tetrahydrofuran-3-yl)methyl)piperidin-3-yl)-1,3-dihydro-2H-benzo[d]imidazol-2-one], with 88.5 nM.
`COc1cc(-c2ccc3c(c2)[nH]c(=O)n3C2CCN(CC3CCOC3)CC2)cn2ncnc12` (centres unmarked) [Example 82, 5-(8-methoxy-[1,2,4]triazolo[1,5-a]pyridin-6-yl)-1-(1-((tetrahydrofuran-3-yl)methyl)piperidin-4-yl)-1,3-dihydro-2H-benzo[d]imidazol-2-one] displayed an IC50 of 1300 nM.

A word on the IC50: it is the midpoint of a concentration-inhibition curve.
